Laboratory results published in the NIST ThermoML archive (doi:10.1021/je050343i).
Numbers after ± are expanded uncertainties.

Assay: activity coefficient (dimensionless); of the first substance listed, at infinite dilution; xn = mol fraction of the nth substance listed
Details: Liquid, Chromatography, x1 = 0

With `CC(F)F` [1,1-difluoroethane] + C=C(C)CCO as the compound, how does the activity coefficient (249.95 K) read?
Its activity coefficient is 4.94 ± 0.34.

And the activity coefficient (269.95 K)?
The activity coefficient was 4.53 ± 0.31.

And the activity coefficient (289.9 K)?
Its activity coefficient is 4.12 ± 0.28.

What about the activity coefficient (309.99 K) of the same compound?
The activity coefficient was 3.74 ± 0.25.

And the activity coefficient (330 K)?
Its activity coefficient is 3.5 ± 0.24.

With `CC(F)F` [1,1-difluoroethane] + C=CC(C)(C)O as the compound, how does the activity coefficient (250 K) read?
Its activity coefficient is 4.68 ± 0.32.

What about the activity coefficient (269.96 K) of the same compound?
The activity coefficient was 3.99 ± 0.27.

And the activity coefficient (289.99 K)?
The activity coefficient was 3.39 ± 0.23.

What about the activity coefficient (309.99 K) of the same compound?
Its activity coefficient is 2.89 ± 0.2.

And the activity coefficient (330 K)?
The activity coefficient was 2.47 ± 0.17.

With `C=CC=C` [1,3-butadiene] + C=C(C)CCO as the compound, how does the activity coefficient (249.92 K) read?
Its activity coefficient is 2.76 ± 0.19.

And the activity coefficient (270.04 K)?
The activity coefficient was 2.69 ± 0.18.

And the activity coefficient (289.99 K)?
Its activity coefficient is 2.65 ± 0.18.

What about the activity coefficient (309.99 K) of the same compound?
The activity coefficient was 2.56 ± 0.17.

And the activity coefficient (330 K)?
The activity coefficient was 2.45 ± 0.17.

With `C=CC=C` [1,3-butadiene] + C=CC(C)(C)O as the compound, how does the activity coefficient (249.98 K) read?
The activity coefficient was 2.43 ± 0.17.

And the activity coefficient (269.95 K)?
Its activity coefficient is 2.36 ± 0.16.

What about the activity coefficient (289.99 K) of the same compound?
Its activity coefficient is 2.22 ± 0.15.

What about the activity coefficient (309.99 K) of the same compound?
The activity coefficient was 2.05 ± 0.14.

What about the activity coefficient (330 K) of the same compound?
The activity coefficient was 1.88 ± 0.13.

Which results are given for `C=CCC` [1-butene] + C=C(C)CCO?
activity coefficient (249.92 K): 3.57 ± 0.24; activity coefficient (270.04 K): 3.47 ± 0.24; activity coefficient (289.99 K): 3.4 ± 0.23; activity coefficient (309.99 K): 3.28 ± 0.22; activity coefficient (330 K): 3.13 ± 0.21

Which results are given for `C=CCC` [1-butene] + C=CC(C)(C)O?
activity coefficient (249.98 K): 2.74 ± 0.19; activity coefficient (269.95 K): 2.65 ± 0.18; activity coefficient (289.99 K): 2.52 ± 0.17; activity coefficient (309.99 K): 2.37 ± 0.16; activity coefficient (330 K): 2.2 ± 0.15

What does the source list for `CC(C)C` [2-methylpropane] + C=C(C)CCO?
activity coefficient (249.92 K): 5.27 ± 0.36; activity coefficient (270.04 K): 4.98 ± 0.34; activity coefficient (289.99 K): 4.73 ± 0.32; activity coefficient (309.99 K): 4.54 ± 0.31; activity coefficient (330 K): 4.29 ± 0.29

For `CC(C)C` [2-methylpropane] + C=CC(C)(C)O, which activity coefficient (249.98 K) is on record?
Its activity coefficient is 3.56 ± 0.24.

What about the activity coefficient (269.95 K) of the same compound?
The activity coefficient was 3.42 ± 0.23.

What about the activity coefficient (289.99 K) of the same compound?
Its activity coefficient is 3.27 ± 0.22.

What about the activity coefficient (309.99 K) of the same compound?
Its activity coefficient is 3.06 ± 0.21.

What about the activity coefficient (330 K) of the same compound?
The activity coefficient was 2.83 ± 0.19.

What does the source list for `C=C(C)C` [2-methylpropene] + C=C(C)CCO?
activity coefficient (249.92 K): 3.49 ± 0.24; activity coefficient (270.04 K): 3.41 ± 0.23; activity coefficient (289.99 K): 3.32 ± 0.23; activity coefficient (309.99 K): 3.21 ± 0.22; activity coefficient (330 K): 3.04 ± 0.21

For `C=C(C)C` [2-methylpropene] + C=CC(C)(C)O, which activity coefficient (249.98 K) is on record?
Its activity coefficient is 2.72 ± 0.19.

What about the activity coefficient (269.95 K) of the same compound?
The activity coefficient was 2.61 ± 0.18.

What about the activity coefficient (289.99 K) of the same compound?
The activity coefficient was 2.47 ± 0.17.

What about the activity coefficient (309.99 K) of the same compound?
Its activity coefficient is 2.31 ± 0.16.

What about the activity coefficient (330 K) of the same compound?
Its activity coefficient is 2.15 ± 0.15.

Which results are given for `C/C=C/C` [(E)-2-butene] + C=C(C)CCO?
activity coefficient (249.92 K): 3.55 ± 0.24; activity coefficient (270.04 K): 3.42 ± 0.23; activity coefficient (289.99 K): 3.35 ± 0.23; activity coefficient (309.99 K): 3.27 ± 0.22; activity coefficient (330 K): 3.12 ± 0.21

Which results are given for `C/C=C/C` [(E)-2-butene] + C=CC(C)(C)O?
activity coefficient (249.98 K): 2.73 ± 0.19; activity coefficient (269.95 K): 2.62 ± 0.18; activity coefficient (289.99 K): 2.51 ± 0.17; activity coefficient (309.99 K): 2.35 ± 0.16; activity coefficient (330 K): 2.2 ± 0.15

What does the source list for `C/C=C\C` [(Z)-2-butene] + C=C(C)CCO?
activity coefficient (249.95 K): 3.26 ± 0.22; activity coefficient (269.95 K): 3.2 ± 0.22; activity coefficient (289.9 K): 3.08 ± 0.21; activity coefficient (309.99 K): 2.9 ± 0.2; activity coefficient (330 K): 2.77 ± 0.19

For `C/C=C\C` [(Z)-2-butene] + C=CC(C)(C)O, which activity coefficient (250 K) is on record?
The activity coefficient was 2.55 ± 0.17.

What about the activity coefficient (269.96 K) of the same compound?
The activity coefficient was 2.48 ± 0.17.

What about the activity coefficient (289.99 K) of the same compound?
The activity coefficient was 2.36 ± 0.16.

What about the activity coefficient (309.99 K) of the same compound?
Its activity coefficient is 2.23 ± 0.15.

And the activity coefficient (330 K)?
Its activity coefficient is 2.05 ± 0.14.

For `CCCC` [butane] + C=C(C)CCO, which activity coefficient (249.92 K) is on record?
Its activity coefficient is 4.89 ± 0.33.

What about the activity coefficient (270.04 K) of the same compound?
The activity coefficient was 4.61 ± 0.31.

What about the activity coefficient (289.99 K) of the same compound?
Its activity coefficient is 4.41 ± 0.3.

And the activity coefficient (309.99 K)?
The activity coefficient was 4.18 ± 0.28.

What about the activity coefficient (330 K) of the same compound?
Its activity coefficient is 3.99 ± 0.27.

What does the source list for `CCCC` [butane] + C=CC(C)(C)O?
activity coefficient (249.98 K): 3.3 ± 0.22; activity coefficient (269.95 K): 3.22 ± 0.22; activity coefficient (289.99 K): 3.08 ± 0.21; activity coefficient (309.99 K): 2.87 ± 0.2; activity coefficient (330 K): 2.65 ± 0.18

With `CCCl` [chloroethane] + C=C(C)CCO as the compound, how does the activity coefficient (249.94 K) read?
Its activity coefficient is 2.49 ± 0.17.

And the activity coefficient (269.95 K)?
Its activity coefficient is 2.35 ± 0.16.

And the activity coefficient (289.9 K)?
Its activity coefficient is 2.32 ± 0.16.

And the activity coefficient (309.99 K)?
Its activity coefficient is 2.23 ± 0.15.

What about the activity coefficient (330 K) of the same compound?
Its activity coefficient is 1.99 ± 0.14.

What does the source list for `CCCl` [chloroethane] + C=CC(C)(C)O?
activity coefficient (250.01 K): 2.28 ± 0.16; activity coefficient (269.96 K): 2.16 ± 0.15; activity coefficient (289.99 K): 1.96 ± 0.13; activity coefficient (309.99 K): 1.69 ± 0.11; activity coefficient (330 K): 1.56 ± 0.1

With `COC` [dimethyl ether] + C=C(C)CCO as the compound, how does the activity coefficient (249.95 K) read?
Its activity coefficient is 1.28 ± 0.08.

What about the activity coefficient (269.95 K) of the same compound?
Its activity coefficient is 1.23 ± 0.08.

What about the activity coefficient (289.9 K) of the same compound?
The activity coefficient was 1.2 ± 0.08.

And the activity coefficient (309.99 K)?
The activity coefficient was 1.17 ± 0.07.

What about the activity coefficient (330 K) of the same compound?
Its activity coefficient is 1.15 ± 0.07.

Which activity coefficient (250.01 K) does the source give for `COC` [dimethyl ether] + C=CC(C)(C)O here?
The activity coefficient was 0.62 ± 0.04.

What about the activity coefficient (269.96 K) of the same compound?
Its activity coefficient is 0.67 ± 0.05.

And the activity coefficient (289.99 K)?
The activity coefficient was 0.7 ± 0.05.

And the activity coefficient (309.99 K)?
The activity coefficient was 0.72 ± 0.05.

And the activity coefficient (330 K)?
The activity coefficient was 0.74 ± 0.05.

What does the source list for `CCC` [propane] + C=C(C)CCO?
activity coefficient (249.92 K): 4.36 ± 0.3; activity coefficient (270.04 K): 4.19 ± 0.29; activity coefficient (289.99 K): 4.1 ± 0.28; activity coefficient (309.99 K): 3.86 ± 0.26; activity coefficient (330 K): 3.7 ± 0.25

What does the source list for `CCC` [propane] + C=CC(C)(C)O?
activity coefficient (249.98 K): 3.08 ± 0.21; activity coefficient (269.95 K): 2.97 ± 0.2; activity coefficient (289.99 K): 2.86 ± 0.19; activity coefficient (309.99 K): 2.7 ± 0.18; activity coefficient (330 K): 2.54 ± 0.17

For `C=CC` [propene] + C=C(C)CCO, which activity coefficient (249.92 K) is on record?
The activity coefficient was 3.07 ± 0.21.

And the activity coefficient (270.04 K)?
The activity coefficient was 3.04 ± 0.21.

What about the activity coefficient (289.99 K) of the same compound?
The activity coefficient was 2.99 ± 0.2.

And the activity coefficient (309.99 K)?
The activity coefficient was 2.92 ± 0.2.

What about the activity coefficient (330 K) of the same compound?
The activity coefficient was 2.8 ± 0.19.

With `C=CC` [propene] + C=CC(C)(C)O as the compound, how does the activity coefficient (249.98 K) read?
The activity coefficient was 2.46 ± 0.17.

What about the activity coefficient (269.95 K) of the same compound?
Its activity coefficient is 2.38 ± 0.16.

What about the activity coefficient (289.99 K) of the same compound?
Its activity coefficient is 2.3 ± 0.16.

And the activity coefficient (309.99 K)?
Its activity coefficient is 2.17 ± 0.15.

What about the activity coefficient (330 K) of the same compound?
The activity coefficient was 2.05 ± 0.14.
